These results are taken from patent US20250136601A1 (priority 2022, published 2025).

The term Ki denotes a dissociation constant, usually derived from enzyme kinetics or from competition with a known ligand. As usually defined, the Cmax is the peak of the concentration-time curve. A word on the MRT: it is a mean duration of stay, worked out from the concentration-time curve. Usually half-life stands for the time in which the quantity being followed falls by half. A low value points to rapid decline. Usually Tmax stands for the time from dosing to the highest level. A word on the EC50: it is the concentration that produces a half-maximal response. High values mean a less potent agent, low ones a more potent agent.

Series [1] deals with depressive episodes associated with bipolar I or II disorder. The following applies: Calabrese et al. 2021; cited from earlier work.
Another series has as its target postsynaptic D2 receptor (Homo sapiens (Human), UniProt P14416). The following applies: postsynaptic D2 receptor antagonist; Li et al., J Med Chem 2014; cited from earlier work.
Another series in a line: in vivo. The conditions noted are these: male, C57, mouse, ip, 10 mg/kg; for MRT / half-life / Tmax: 10 mg/kg IP, mice.
Another series addresses dopamine D2 receptor (Homo sapiens (Human), UniProt P14416). Briefly: radioligand competitive binding assay, [3H]-Methylspiperone, 293T membranes. The conditions noted are these: affinity for the dopamine D2 receptor.
For series [2], the system named is head-twitch response in mice. The format is in vivo, C57BL/6J mice. The following applies: intraperitoneal, at all doses tested, first 30 minutes. The source says: Method: The head-twitch response in mice was detected via oscillatory signals to characterize hallucinogenic effects. Mice (strain C57BL/6J, purchased from Shanghai Lingchang Biotech Co., Ltd.) were anesthetized with 2% isoflurane. A small portion of the scalp was removed from the center of the dorsal cranium. A custom-made small neodymium magnet (4 mm×4 mm×2 mm) was attached to the center of the dorsal cranium using dental resin. The magnet N-S poles were kept parallel to the dorsoventral aspect of the implant. The mice were allowed to recover for 1 week before testing. To record precise head movements, the mice were placed in a glass beaker with a diameter of 12 cm, surrounded by 150 turns of #30 enameled copper wire. The output signal from the coil was recorded using a PowerLab/4SP instrument installed with LabChart V8.1.16 software. Coil voltage was amplified, low-pass filtered at 10 kHz to remove radio frequency interference, and sampled at 40 kHz. For the detection of head-twitch response in mice, LabChart data were processed with a digital band-pass filter at 40 to 200 Hz. The head-twitch response in mice was identified by searching for sinusoidal wavelets that met the following criteria: 1) containing more than two bipolar peaks; 2) amplitude exceeding background noise level; 3) duration less than 120 milliseconds. 1 hour prior to the test, the mice were transferred to the test room for acclimatization. Subsequently, the mice were placed in the beaker for 30 minutes, and baseline head-twitch response values were recorded. Immediately after baseline recording, the mice were injected intraperitoneally with the test compound, and head-twitch response values were recorded for 1 to 2 hours post-dose, depending on the compound used. Statistical values were taken from the first 30 minutes.

The conditions of series [3]: for AUMC0-inf / AUMC0-t / Kel: 10 mg/kg IP, mice.
Experimental: (§1) The concentration of the compound in mouse plasma was determined using LC-MS/MS, and the relevant pharmacokinetic parameters were calculated to investigate the pharmacokinetic characteristics of the compound in mice.
(§2) Experimental design: 60 male C57 mice (purchased from Suzhou JOINN Laboratory Animal Co., Ltd.) were randomly divided into groups based on weight, with 3 mice per group. The mice were fasted with water ad libitum for 12 to 14 hours one day before test-article administration and fed 4 hours after the administration. The route of administration was intraperitoneal (IP), with a dosing concentration of 1 mg/mL, and a solvent formulation of 10% DMSO+90% saline.
(§3) Sample collection: 0.1 mL of blood was collected from the orbit under isoflurane anesthesia before and after test-article administration, transferred to EDTA K2 tubes, and placed on an ice bath. The samples were centrifuged at 5000 rpm for 10 minutes at 4° C., and the plasma was collected. […] Prior to analysis, all plasma samples were stored at −80° C.
(§4) Data processing: Drug concentrations in plasma and brain tissues were measured using LC-MS (API4000QTRAP triple quadrupole tandem mass spectrometer, equipped with an electrospray ionization source (ESI)). The data collection and control system software utilized was Analyst 1.5.1 (Applied Biosystems). The sample peak integration in the spectrum was conducted automatically; the ratio of the sample peak area to the internal standard peak area was used as an indicator to perform regression with the concentration of the sample. Regression method: Linear regression with a weighting factor of 1/X^2. Pharmacokinetic parameters were analyzed using a non-compartmental model in WinNonlin Professional v6.3 (Pharsight, USA). Cmax is the measured maximum plasma concentration, the area under the plasma concentration-time curve (AUC(0→0)) was calculated by the trapezoidal method, and Tmax is the time to reach peak plasma concentration after administration. Experimental data are presented as “Mean±Standard Deviation” (Mean±SD, n≥3) or “Mean” (n=2).
Series [4] has as its target T1, 5-HT2A receptor (Homo sapiens (Human), UniProt P28223). Briefly: cell-based. Format: cell-based. The protocol:
On the second day, the confluent cells from a 6 cm culture dish were digested and reseeded into a 96-well plate at a volume of 100 μL of culture medium per well. On the third day, the drugs were added for testing. The 96-well plate was taken out from the cell incubator to decant the culture medium. 40 μL of the substrate coelenterazine 400a (final concentration 5 μM) was added to each well, and then 20 μL of different drugs were added sequentially from left to right, ensuring that the final concentration of the drug decreased gradually from bottom to top, with two replicates per treatment. Finally, the prepared samples were loaded on a plate reader for signal quantification. The readout values reflected the recruitment of β-arrestin2 to the membrane or the dissociation of G protein trimer. The former indicated the degree of activation of the downstream β-arrestin2 signaling pathway mediated by the 5-HT2A receptor, and the latter indicated the degree of activation of the downstream G protein signaling pathway mediated by the 5-HT2A receptor.

The target in series [5] is T1, 5-HT2A receptor. The experiment in a line: radioligand competitive binding assay, [3H]-LSD, 293T membranes.

Each structure is given as a SMILES string. Values joined by “and” are separate entries in the source; they are usually repeats but may differ in a detail not shown here. Equal entries are not always repeated. Where two headings read alike, the source gives them in different places.

T1 sequence (P28223 whole entry): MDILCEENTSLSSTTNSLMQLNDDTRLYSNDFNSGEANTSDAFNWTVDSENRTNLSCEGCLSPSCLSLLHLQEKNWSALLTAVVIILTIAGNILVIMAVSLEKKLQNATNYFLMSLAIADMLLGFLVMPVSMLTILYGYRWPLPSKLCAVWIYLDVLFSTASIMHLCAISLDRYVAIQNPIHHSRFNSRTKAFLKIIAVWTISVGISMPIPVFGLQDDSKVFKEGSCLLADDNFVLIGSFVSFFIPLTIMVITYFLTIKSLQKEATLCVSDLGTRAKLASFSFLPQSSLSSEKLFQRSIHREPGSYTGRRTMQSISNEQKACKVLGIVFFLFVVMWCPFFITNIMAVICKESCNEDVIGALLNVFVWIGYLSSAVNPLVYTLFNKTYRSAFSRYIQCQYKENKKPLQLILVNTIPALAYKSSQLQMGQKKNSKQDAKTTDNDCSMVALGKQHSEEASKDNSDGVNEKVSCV
Sequence of postsynaptic D2 receptor (P14416 whole entry): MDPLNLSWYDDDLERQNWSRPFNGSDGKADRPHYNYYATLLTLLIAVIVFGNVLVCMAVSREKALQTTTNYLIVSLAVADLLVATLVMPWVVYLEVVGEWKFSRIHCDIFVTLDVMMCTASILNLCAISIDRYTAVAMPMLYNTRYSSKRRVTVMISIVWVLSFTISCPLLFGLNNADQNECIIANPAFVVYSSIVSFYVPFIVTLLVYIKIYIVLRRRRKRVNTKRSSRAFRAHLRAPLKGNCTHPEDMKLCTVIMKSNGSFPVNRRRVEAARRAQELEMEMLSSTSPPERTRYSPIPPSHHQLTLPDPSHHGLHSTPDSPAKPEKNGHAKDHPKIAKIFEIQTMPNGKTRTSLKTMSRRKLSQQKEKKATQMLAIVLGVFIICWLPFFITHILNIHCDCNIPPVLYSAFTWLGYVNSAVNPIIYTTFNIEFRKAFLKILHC
Sequence of dopamine D2 receptor (P14416 whole entry, species assumed): as the sequence (P14416 whole entry) above
Experimental for dopamine D2 receptor: Method: The affinity of the compounds of the present disclosure for the dopamine D2 receptor was determined using a radioligand competitive binding assay as follows. In the first step, a cell membrane component containing dopamine D2 receptor was prepared. […] 48 hours post-transfection, the 10 cm culture dish was taken out from the cell incubator and the cultured cells had expressed the dopamine D2 receptor. The culture medium was aspirated using a vacuum pump, and 3 mL of lysis buffer was added to each culture dish. The cells were then placed in a cold room at 4° C. for 10 minutes. After the cells were detached, they were transferred to a 15 mL centrifuge tube and centrifuged at 1500 rpm for 5 minutes at 4° C., and the supernatant was discarded. The cell pellet was transferred to a tissue homogenizer, and 3 mL of lysis buffer was added. Sufficient grinding was applied to break the cells. The cell suspension was then equally aliquoted into several Eppendorf tubes and centrifuged at 12000 rpm for 5 minutes at 4° C., and the supernatant was discarded. The resulting precipitate was the cell membrane component containing the dopamine D2 receptor. […] The machine readout value reflected the amount of [3H]-Methylspiperone bound on the membrane, and after further data processing, the affinity Ki values of different compounds for the dopamine D2 receptor were obtained.
Experimental for in vivo: as §1, §2, §3, §4

As for `CN1CCN2c3c(cccc31)[C@@H]1CN(CCCC(=O)c3ccc(F)cc3)CC[C@@H]12` [lumateperone, Lumateperone], the patient response rate in series [1] is 51.1%. Further, the Ki at postsynaptic D2 receptor was 32 nM.

For `COc1ccccc1CCCN1CC[C@H]2[C@@H](C1)c1cccc3c1N2CCN3C` [Compound I-10], in the series “in vivo”, the AUC0-inf turned out to be 582 ng·h/mL; the AUC0-t is 576 ng·h/mL; the Cmax is 225 ng/mL and 566 ng/g. For the same compound, in the series “in vivo” (brain), the MRT turned out to be 91.8 min and the Tmax was 30 min. In addition, in “in vivo” (plasma), the MRT stood at 127 min and the Tmax worked out at 4.98 min. Besides, the half-life in “in vivo” (T1/2, brain) is 48.1 min. In the series “in vivo” (T1/2, plasma), the half-life was 63.6 min. For the same compound, the inhibition constant Ki on dopamine D2 receptor worked out at 1860 nM. Further, in series [2], the “hallucinogenic effects (head-twitch response)” value was “did not induce hallucinogenic effects”. In series [3] (brain), this compound yielded an AUMC0-inf of 2054 h · h · ng · g^−1, an AUMC0-t of 1979 h · h · ng · g^−1 and a Kel of 0.865 h⁻¹. In series [3] (mouse, in vivo, ip, 10 mg/kg), this compound came in with an AUC0-inf of 1346 ng·h/g and an AUC0-t of 1335 ng·h/g. In series [3] (plasma), the AUMC0-inf is given as 1230 h · h · ng · mL^−1, the AUMC0-t is 1169 h · h · ng · mL^−1 and the Kel worked out at 0.654 h⁻¹. The compound further had an EC50 at 5-HT2A receptor [4] of 204 nM. Also, the Emax at 5-HT2A receptor [4] (HEK-293T, read-out: β-arrestin2 signaling agonistic activity (percentage in parentheses)) came to 12.7%. The same compound gave a Ki on 5-HT2A receptor [5] of less than 100 nM.
